Measured values published in ChEMBL document CHEMBL1201862, “PubChem BioAssay data set” (2004).
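Cultured in 96-well plates, cells were exposed to test compound for 48 hours across five concentrations. GI50: concentration for 50% inhibition of growth.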 Active and inactive are the calls of the source. Rule as the data show it: active = GI50 up to about 1.1 µM and inactive = higher.

Columns and labels:
Assay in all cases: DTP human tumour cell line panel, 48 h
ACHN = test system: ACHN
CAKI-1 = test system: CAKI-1
HL-60 = test system: HL-60
HT-29 = test system: HT-29
LXFL 529 = test system: LXFL 529
OVCAR-8 = test system: OVCAR-8
SF-268 = test system: SF-268
SF-295 = test system: SF-295
SF-539 = test system: SF-539
TK-10 = test system: TK-10
A498 = test system: A498
HCC 2998 = test system: HCC 2998
KM12 = test system: KM12
NCI-H226 = test system: NCI-H226
OVCAR-5 = test system: OVCAR-5
UACC-257 = test system: UACC-257
BT-549 = test system: BT-549
MDA-MB-231 = test system: MDA-MB-231
NCI/ADR-RES = test system: NCI/ADR-RES
PC-3 = test system: PC-3

Row | Compound | GI50 (ACHN) | GI50 (CAKI-1) | GI50 (HL-60) | GI50 (HT-29) | GI50 (LXFL 529) | GI50 (OVCAR-8) | GI50 (SF-268) | GI50 (SF-295) | GI50 (SF-539) | GI50 (TK-10) | GI50 (A498) | GI50 (HCC 2998) | GI50 (KM12) | GI50 (NCI-H226) | GI50 (OVCAR-5) | GI50 (UACC-257) | GI50 (BT-549) | GI50 (MDA-MB-231) | GI50 (NCI/ADR-RES) | GI50 (PC-3)
1 | Cn1nc(-c2ccccc2)c(C(=O)/C=C/c2ccc(Cl)cc2)c(N2CCCC2)c1=O | 1.72 µM (inactive) | 0.55 µM (active) | 1.92 µM (inactive) | 2.21 µM (inactive) | 3.47 µM (inactive) | 4.91 µM (inactive) | 4.61 µM (inactive) | 0.632 µM (active) | 3.55 µM (inactive) | 11.6 µM (inactive) |  |  |  |  |  |  |  |  |  | 
2 | C=CN1C(=O)[C@H](Oc2ccccc2)[C@@H]1c1ccccc1 | 32 µM (inactive) |  |  | 22.7 µM (inactive) | 31.4 µM (inactive) | 23.8 µM (inactive) | 37.2 µM (inactive) | 26.1 µM (inactive) | 16.2 µM (inactive) | 37.2 µM (inactive) | 71.4 µM (inactive) | 47.4 µM (inactive) | 33 µM (inactive) | 44.4 µM (inactive) | > 100 µM (inactive) | 41.5 µM (inactive) |  |  |  | 
3 | [N-]=[N+]=C1C(=O)c2ccccc2-c2ccccc21 | 38.6 µM (inactive) | 37.4 µM (inactive) | 28.8 µM (inactive) | 34.8 µM (inactive) |  | 30.6 µM (inactive) | 33.3 µM (inactive) | 33 µM (inactive) | 24.6 µM (inactive) | 54 µM (inactive) | 16.3 µM (inactive) | 51.3 µM (inactive) | 39.2 µM (inactive) | 30 µM (inactive) | 34.1 µM (inactive) | 36.7 µM (inactive) | 34.4 µM (inactive) | 36 µM (inactive) | 25.6 µM (inactive) | 25.8 µM (inactive)
4 | CN(C)CC/C(=N\Nc1ccc(Cl)cc1Cl)c1ccccc1 | 15 µM (inactive) |  | 5.07 µM (inactive) | 14.3 µM (inactive) | 13.2 µM (inactive) | 17.7 µM (inactive) |  | 18.5 µM (inactive) | 18.1 µM (inactive) | 15.1 µM (inactive) | 16.4 µM (inactive) |  | 16 µM (inactive) |  | 16.9 µM (inactive) | 15.9 µM (inactive) |  |  |  | 
5 | CC(C)(C)OC(=O)c1cccnc1/C=N/O | 24 µM (inactive) | > 100 µM (inactive) | > 100 µM (inactive) | > 100 µM (inactive) | > 100 µM (inactive) | > 100 µM (inactive) | > 100 µM (inactive) | 78.7 µM (inactive) | > 100 µM (inactive) | > 100 µM (inactive) |  |  | > 100 µM (inactive) | > 100 µM (inactive) | > 100 µM (inactive) | > 100 µM (inactive) |  |  |  | 
6 | COc1ccc(C(=O)N(C(=O)N2CCN(c3ccccc3)CC2)S(=O)(=O)c2ccccc2)cc1 | 18.8 µM (inactive) | 20.3 µM (inactive) | 22.1 µM (inactive) | 28.1 µM (inactive) |  | 19.8 µM (inactive) | 31.8 µM (inactive) | 31.9 µM (inactive) | 17.8 µM (inactive) | 38.4 µM (inactive) | 53.8 µM (inactive) | 52.6 µM (inactive) | 31.6 µM (inactive) | 22.2 µM (inactive) | 24.7 µM (inactive) | 31.4 µM (inactive) | 33.3 µM (inactive) | 25.3 µM (inactive) | 21.9 µM (inactive) | 30.5 µM (inactive)
7 | O=C1c2ccccc2C(=O)N1C/C=N/NS(=O)(=O)c1cccc([N+](=O)[O-])c1 | > 100 µM (inactive) | > 100 µM (inactive) | > 100 µM (inactive) | > 100 µM (inactive) | > 100 µM (inactive) | > 100 µM (inactive) | > 100 µM (inactive) | > 100 µM (inactive) | > 100 µM (inactive) | > 100 µM (inactive) | > 100 µM (inactive) | > 100 µM (inactive) | > 100 µM (inactive) |  |  | > 100 µM (inactive) |  |  |  | 
8 | CCC(=O)c1c(NOC2OC(COC(C)=O)C(OC(C)=O)C(OC(C)=O)C2OC(C)=O)nc(OC)n(C)c1=O (centres undefined) | > 100 µM (inactive) |  |  | > 100 µM (inactive) | > 100 µM (inactive) | > 100 µM (inactive) | > 100 µM (inactive) | > 100 µM (inactive) | 69.2 µM (inactive) | > 100 µM (inactive) |  | > 100 µM (inactive) | > 100 µM (inactive) | 50.1 µM (inactive) | > 100 µM (inactive) |  |  |  |  | 
9 | COCOc1cc(OCOC)cc(C(=O)Oc2ccccc2)c1 | > 100 µM (inactive) | > 100 µM (inactive) | > 100 µM (inactive) | > 100 µM (inactive) |  | > 100 µM (inactive) | > 100 µM (inactive) | > 100 µM (inactive) | > 100 µM (inactive) | > 100 µM (inactive) | > 100 µM (inactive) | > 100 µM (inactive) | > 100 µM (inactive) | > 100 µM (inactive) | > 100 µM (inactive) | > 100 µM (inactive) | > 100 µM (inactive) | > 100 µM (inactive) | > 100 µM (inactive) | 93.8 µM (inactive)
10 | CCOC(=O)NC(=O)c1cn(CCCOC(=O)NCCCCCCNC(=O)OCCCn2cc(C(=O)NC(=O)OCC)c(=O)[nH]c2=O)c(=O)[nH]c1=O | 18.7 µM (inactive) | 11.9 µM (inactive) | 16.7 µM (inactive) | 63.4 µM (inactive) | 57.4 µM (inactive) | 31.3 µM (inactive) |  | 22.5 µM (inactive) | 18.5 µM (inactive) | 29.8 µM (inactive) | 22.8 µM (inactive) | 20 µM (inactive) |  |  |  | 19.2 µM (inactive) |  |  |  | 
11 | Cn1cc(NC(=O)c2cc(NC(=O)CCCCCC(=O)Nc3cc(C(=O)Nc4cc(C(=O)NCCC(=N)N)n(C)c4)n(C)c3)cn2C)cc1C(=O)NCCC(=N)N | > 100 µM (inactive) | > 100 µM (inactive) | 30 µM (inactive) | > 100 µM (inactive) | > 100 µM (inactive) | > 100 µM (inactive) | > 100 µM (inactive) | > 100 µM (inactive) | > 100 µM (inactive) | > 100 µM (inactive) | > 100 µM (inactive) | > 100 µM (inactive) | 73.8 µM (inactive) |  | > 100 µM (inactive) | 27.2 µM (inactive) |  |  |  | 
12 | O=c1c2cc3c(cc2[nH]c2ncccc12)OCO3 | > 10 µM (inactive) | > 10 µM (inactive) | > 10 µM (inactive) | > 10 µM (inactive) |  | > 10 µM (inactive) | > 10 µM (inactive) | > 10 µM (inactive) | > 10 µM (inactive) | > 10 µM (inactive) | > 10 µM (inactive) | > 10 µM (inactive) | > 10 µM (inactive) | > 10 µM (inactive) | > 10 µM (inactive) | > 10 µM (inactive) | > 10 µM (inactive) | > 10 µM (inactive) | > 10 µM (inactive) | > 10 µM (inactive)
13 | C=C(Cl)C(Cl)(CBr)CCC(Br)C(C)(C)Br (centres undefined) | 2.62 µM (inactive) | 2.47 µM (inactive) | 2.19 µM (inactive) | 1.07 µM (active) |  | 4.3 µM (inactive) | 3.22 µM (inactive) | 2 µM (inactive) | 1.99 µM (inactive) | 1.49 µM (inactive) | 10.5 µM (inactive) | 5.75 µM (inactive) | 1.38 µM (inactive) | 20.1 µM (inactive) | 12.7 µM (inactive) | 1.8 µM (inactive) | 7.66 µM (inactive) | 11.9 µM (inactive) | 5.66 µM (inactive) | 2.31 µM (inactive)
14 | COc1cc(/C=c2/c3ccccc3n3c2cc(-c2ccccc2)[n+]3C)cc(OC)c1OC | 4.07 µM (inactive) | 3.92 µM (inactive) | 2.39 µM (inactive) | 3.07 µM (inactive) |  | 3.33 µM (inactive) | 6.73 µM (inactive) | 5.64 µM (inactive) | 2.86 µM (inactive) | 5.33 µM (inactive) | 16 µM (inactive) | 6.22 µM (inactive) | 1.91 µM (inactive) | 7.94 µM (inactive) | 4.85 µM (inactive) | 2.44 µM (inactive) | 3.78 µM (inactive) | 4.06 µM (inactive) | > 100 µM (inactive) | 3.74 µM (inactive)
15 | Cc1cccc(NC(=S)N/N=C(/c2ccccc2)c2ccccn2)c1 | 0.044 µM (active) | 0.249 µM (active) | < 0.0137 µM (active) | 0.0285 µM (active) |  | 0.038 µM (active) | 0.0863 µM (active) | 0.173 µM (active) | 1.31 µM (inactive) | 0.117 µM (active) | 1.98 µM (inactive) | 2.84 µM (inactive) | 0.0796 µM (active) | 0.207 µM (active) | 0.0266 µM (active) | < 0.0162 µM (active) | 2.5 µM (inactive) | 0.0378 µM (active) | 0.138 µM (active) | < 0.0143 µM (active)
16 | C=CCOC(=O)C1C2OC3(C(C(=O)OC)=C2C(=O)OC)c2ccccc2CCC13 (centres undefined) | > 10 µM (inactive) | > 10 µM (inactive) | > 10 µM (inactive) | > 10 µM (inactive) |  | > 10 µM (inactive) | > 10 µM (inactive) | > 10 µM (inactive) | > 10 µM (inactive) | > 10 µM (inactive) | > 10 µM (inactive) | > 10 µM (inactive) | > 10 µM (inactive) | > 10 µM (inactive) | > 10 µM (inactive) | > 10 µM (inactive) | > 10 µM (inactive) | > 10 µM (inactive) | > 10 µM (inactive) | > 10 µM (inactive)
17 | O=c1cccccc1O.O=c1cccccc1O.O=c1cccccc1O.[SiH4] | 10 µM (inactive) | 56.2 µM (inactive) |  | 33.4 µM (inactive) | 18.8 µM (inactive) | 11.5 µM (inactive) | 42.9 µM (inactive) | 41.2 µM (inactive) | 18.3 µM (inactive) | 74 µM (inactive) | 34.4 µM (inactive) | 32.4 µM (inactive) | 26.8 µM (inactive) |  | 28.6 µM (inactive) | 21 µM (inactive) |  |  |  | 
